ChEMBL document CHEMBL1130884, “Synthesis of novel antifungal agents (2)” (1998)
Converted amounts (≈) assume the structure as drawn.

What was measured:
[1] = tested on: Candida albicans; assay: Compound was tested for in vitro antifungal activity against Candida albicans (CY3003); format: functional
[2] = tested on: Cryptococcus neoformans; assay: Compound was tested for in vitro antifungal activity against Cryptococcus neoformans (CY1057)
[3] = tested on: Mus musculus; assay: Compound was tested for antifungal activity by measuring systemic candidosis in mice on 7th day upon single peroral administration; format: functional; conditions: po
[4] = tested on: Aspergillus fumigatus; assay: Compound was tested in vitro for antifungal activity against Aspergillus fumigatus (CF1003); format: functional

| Compound | IC80 [1] | IC80 [2] | ED50 [3] | IC80 [4] |
| --- | --- | --- | --- | --- |
| CSCC[C@]1(C)CC[C@@H](COc2ccc(OC(C)(C)C)cc2)[C@H](Cn2cncn2)/C1=N/O | 0.18 µg/mL (≈ 0.391 µM) | 21 µg/mL (≈ 45.6 µM) | > 100 mg/kg | 0.45 µg/mL (≈ 0.977 µM) |
| COC1[C@@H](Cn2cncn2)[C@H](COc2ccc(OC(C)(C)C)cc2)CC[C@@]1(C)CCn1ccnc1 (stereo partly specified) | 0.08 µg/mL (≈ 0.166 µM) | 0.24 µg/mL (≈ 0.498 µM) | 50 mg/kg | 84 µg/mL (≈ 174 µM) |
| OC(Cn1cncn1)(Cn1cncn1)c1ccc(F)cc1F [FLUCONAZOLE] | 1.4 µg/mL (≈ 4.57 µM) | 3.6 µg/mL (≈ 11.8 µM) | 5.4 mg/kg | > 200 µg/mL |
| COCC[C@]1(C)CC[C@@H](COc2ccc(OC(C)(C)C)cc2)[C@H](Cn2cncn2)/C1=N/OC | 0.05 µg/mL (≈ 0.109 µM) | 1 µg/mL (≈ 2.18 µM) | > 100 mg/kg | 0.6 µg/mL (≈ 1.31 µM) |
| COC1[C@@H](Cn2cncn2)[C@H](COc2ccc(OC(C)(C)C)cc2)CC[C@@]1(C)CCN1CCOCC1 (stereo partly specified) | 0.03 µg/mL (≈ 0.0599 µM) | 0.02 µg/mL (≈ 0.0399 µM) | 50 mg/kg | 158 µg/mL (≈ 316 µM) |
| CO[C@@H]1[C@@H](Cn2cncn2)[C@H](COc2ccc(OC(C)(C)C)cc2)CC[C@@]1(C)CCSc1nccn1C | 0.5 µg/mL (≈ 0.947 µM) | 0.9 µg/mL (≈ 1.71 µM) | 50 mg/kg | 36 µg/mL (≈ 68.2 µM) |
| CO/N=C1/[C@@H](Cn2cncn2)[C@H](COc2ccc(OC(C)(C)C)cc2)CC[C@@]1(C)CCSc1ncccn1 | 0.85 µg/mL (≈ 1.58 µM) | 1.1 µg/mL (≈ 2.04 µM) | > 100 mg/kg | 2.6 µg/mL (≈ 4.83 µM) |
| COC1[C@@H](Cn2cncn2)[C@H](COc2ccc(OC(C)(C)C)cc2)CC[C@@]1(C)CCS(C)(=O)=O (stereo partly specified) | 0.7 µg/mL (≈ 1.42 µM) | 0.38 µg/mL (≈ 0.77 µM) | 50 mg/kg | > 200 µg/mL |
| CO/N=C1/[C@@H](Cn2cncn2)[C@H](COc2ccc(OC(C)(C)C)cc2)CC[C@@]1(C)CCn1ccnc1 | 0.22 µg/mL (≈ 0.445 µM) | 13 µg/mL (≈ 26.3 µM) | > 100 mg/kg | 4.6 µg/mL (≈ 9.3 µM) |
